{"source": "ChEMBL document CHEMBL1914347", "about": "“Palmerolide macrolides from the Antarctic tunicate Synoicum adareanum” (Bioorg Med Chem, 2011)", "key": {"[1]": {"assay": "Ratio of IC50 for bovine brain Vo domain of V-ATPase activity to IC50 for human UACC62 cells", "set-up": "species or system UACC-62"}, "[2]": {"test_system": "UACC-62", "assay": "Cytotoxicity against human UACC62 cells after 48 hrs by SRB assay", "type": "functional, cell-based", "settings": "UACC-62, 48 h"}, "[3]": {"assay": "Cytotoxicity against human NCI60 cells", "type": "functional", "settings": "read-out: LC50 (the source's name)"}, "[4]": {"assay": "Inhibition of bovine brain Vo domain of V-ATPase activity assessed as ATP-mediated proton translocation by spectrophotometric analysis", "set-up": "species or system Bos taurus"}}, "data": [{"smiles": "CC(C)=CC(=O)N/C=C/C(C)=C/[C@@H](C)[C@H]1C/C(C)=C/C=C/CC[C@H](OC(N)=O)[C@@H](O)/C=C/[C@@H](O)CCC/C=C/C(=O)O1", "note": "[PALMEROLIDE A]", "values": [{"measurement": "Ratio IC50", "setting": "[1]", "value": 0.083}, {"measurement": "IC50", "setting": "[2]", "value": 0.024, "unit": "µM"}, {"measurement": "CC50", "setting": "[3]", "value": 0.018, "unit": "µM"}, {"measurement": "IC50", "setting": "[4]", "value": 0.002, "unit": "µM"}]}, {"smiles": "C=C(C)C/C(C)=C\\C(=O)N/C=C/C(C)=C/[C@@H](C)[C@H]1C/C(C)=C/C=C/CC[C@H](OC(N)=O)[C@@H](O)/C=C/[C@@H](O)CCC/C=C/C(=O)O1", "note": "[PALMEROLIDE D]", "values": [{"measurement": "Ratio IC50", "setting": "[1]", "value": 12.5}, {"measurement": "IC50", "setting": "[2]", "value": 0.002, "unit": "µM"}, {"measurement": "IC50", "setting": "[4]", "value": 0.025, "unit": "µM"}]}, {"smiles": "C/C(C=O)=C\\[C@@H](C)[C@H]1C/C(C)=C/C=C/CC[C@H](OC(N)=O)[C@@H](O)/C=C/[C@@H](O)CCC/C=C/C(=O)O1", "note": "[PALMEROLIDE E]", "values": [{"measurement": "Ratio IC50", "setting": "[1]", "value": ">2"}, {"measurement": "IC50", "setting": "[2]", "value": 5000, "unit": "µM"}, {"measurement": "IC50", "setting": "[4]", "value": "> 10000", "unit": "µM"}]}, {"smiles": "C=C(C)CC(=O)N/C=C/C(C)=C/[C@@H](C)[C@H]1C/C(C)=C/C=C/CC[C@H](OC(N)=O)[C@@H](O)/C=C/[C@@H](O)CCC/C=C/C(=O)O1", "note": "[PALMEROLIDE F]", "values": [{"measurement": "Ratio IC50", "setting": "[1]", "value": 0.083}, {"measurement": "IC50", "setting": "[2]", "value": 0.758, "unit": "µM"}, {"measurement": "IC50", "setting": "[4]", "value": 0.063, "unit": "µM"}]}, {"smiles": "CC(C)=CC(=O)N/C=C/C(C)=C\\[C@@H](C)[C@H]1C/C(C)=C/C=C/CC[C@H](OC(N)=O)[C@@H](O)/C=C/[C@@H](O)CCC/C=C/C(=O)O1", "note": "[PALMEROLIDE G]", "values": [{"measurement": "Ratio IC50", "setting": "[1]", "value": 0.006}, {"measurement": "IC50", "setting": "[2]", "value": 1.21, "unit": "µM"}, {"measurement": "IC50", "setting": "[4]", "value": 0.007, "unit": "µM"}]}]}
